According to EP1142584A1, “COMPOSITIONS FOR TREATING FREQUENT URINATION AND URINARY INCONTINENCE” (Takeda Chemical Industries, Ltd., priority 1999, dated 2000):
Counter-ions that a name gives are not always drawn. Marks after values point to notes of the source that are not given here.

Key:
Type in all cases: in vivo
[1] = test system: rhythmic bladder contractions in urethane-anesthetized rats; assay: Rhythmic bladder contractions in urethane-anesthetized rats (Test Example 2); settings: mean ± standard error; for Reflex shutdown time: maximum observation period 30 minutes
Protocol: The urinary frequency and urinary incontinence suppressing activity of a GABA uptake inhibitor was measured as the ability to abolish the rhythmic bladder contractions in urethane-anesthetized rats as an index. An urethra was ligated, a constant volume of physiological saline warmed at 39°C was injected into the bladder to distend the detrusor muscle, and the regular rhythmic bladder contractions at a constant interval were observed. After the stable bladder contractions were confirmed, a compound was administered intravenously to investigate the activities. A time for completely suppressing the rhythmic bladder contractions after the drug administration (reflex shutdown time, a maximum observation period was 30 minutes) and a maximum contractile intravesical pressure at which the bladder contraction appeared again after the administration was measured. […] Table 2 Tiagabin hydrochloride was dissolved in distilled water, other drugs were dissolved in physiological saline, and the drugs were administered intravenously, respectively. Data are shown as mean ± standard error. *P<0.05, **P<0.01 (significance relative to the vehicle-administered control group, nonparametric Dunnett multiple comparison test, two-tailed test) ^#P<0.05 (significance to the values obtained before drug administration, paired t test, two-tailed test). A maximum contractile pressure was calculated from animals from which the bladder constriction was obtained in an observation period.

[2] = test system: rhythmic bladder contractions in urethane-anesthetized guinea pig; assay: Rhythmic bladder contractions in urethane-anesthetized guinea pig (Test Example 1); settings: mean ± standard error, maximum observation period 30 minutes
Protocol: The urinary frequency and urinary incontinence suppressing activity of NO-711 hydrochloride was evaluated by the ability to increase an interval between rhythmic bladder contractions in urethane-anesthetized guinea pig as an index. In this model, an urethra was ligated, a constant volume of a physiological saline (3 to 4.5 ml) warmed at 39°C was injected into the bladder to distend, and the regular rhythmic bladder contractions at a constant interval were observed. After the stable rhythmic bladder contractions were confirmed, a compound dissolved in physiological saline was administered intravenously to investigate the activity. Immediately after administration of a drug, the time of complete suppression of the rhythmic bladder contractions (rhythmic bladder contraction shutdown time, maximum observation period was 30 minutes) was measured. Table 1 A drug was administered intravenously. *P<0.05, **P<0.01 (significance to the physiological saline-administered control group, nonparametric Dunnett multiple comparison test, two-tailed test)

[3] = test system: bladder capacity in urethane-anesthetized rats; assay: Bladder capacity (cystometry) in urethane-anesthetized rats (Test Example 3); settings: mean ± standard error
Protocol: The urinary frequency and urinary incontinence suppressing activity of a GABA uptake inhibitor was shown by the ability to increase bladder capacity in urethane-anesthetized rats. After a bladder was made empty by drawing out the urine, physiological saline warmed at 39°C was injected into the bladder at a constant rate (0.05 ml/min.) to induce micturition. These procedures were repeated to confirm stable bladder capacity (volume of physiological saline injected until start of micturition) and, thereafter, compounds were administered intravenously to investigate the activities. A change in bladder capacity and micturition pressure after the administration was measured. […] Table 3 Tiagabin hydrochloride was dissolved in distilled water, other drugs were dissolved in physiological saline and the drugs were administered intravenously, respectively. Data are shown as the mean ± standard error. After drug administration, animals showing an overflow urinary incontinence-like cystometrogram (urine leakage without the bladder constriction) were excluded from calculation of micturition pressure. *P<0.05, **P<0.01 (significance to the values obtained before drug administration, paired t test, two-tailed test)

[4] = test system: unilaterally decerebrated rat under consciousness; assay: Micturition interval in unilaterally decerebrated rat under consciousness (Test Example 5); settings: for Micturition interval (min.) After administration / Micturition pressure (mmHg) After administration / Micturition interval (min.) Before administration / Micturition pressure (mmHg) Before administration: mean ± standard error; for Micturition interval (min.) Before administration / Micturition pressure (mmHg) Before administration: 30 minutes before drug
Protocol: The urinary frequency and urinary incontinence activity of a GABA uptake inhibitor was measured as the ability to increase the micturition interval in a unilaterally decerebrated rat under consciousness as an index. Animals were restricted in a Ballmann cage, and physiological saline was sustained-injected into the bladder at a constant rate (0.05 ml/min.) to induce repeated micturition. In a unilaterally decerebrated rat, micturition interval was decreased, and after the stable micturition interval was confirmed, a drug was administered intravenously or orally to investigate the activity (Table 5 and Table 6). The micturition interval and micturition pressure before and after drug administration were measured for 30 minutes, and the mean values were compared.
A drug was administered intravenously. Cystometogram was continuously measured for 30 minutes starting 15 minutes after drug administration, and it was compared with that for 30 minutes before drug administration. Data are shown as the means ± standard error. *P<0.05 **P<0.01 (significance to before administration, paired t test, two-tailed test) Table 6
A drug was administered orally. A bladder inner pressure curve was continuously measured for 30 minutes starting 60 minutes after drug administration, and it was compared with that for 30 minutes before drug administration. Data are shown as the mean ± standard error. *P<0.05 (significance relative to drug administration, paired t test, two-tailed test)

[5] = test system: bilateral common carotid artery-ligated rat under consciousness; assay: Micturition interval in bilateral common carotid artery-ligated rat under consciousness (Test Example 4); settings: for Micturition interval (relative to before ligation, %) After administration / Micturition pressure (relative to before ligation, %) After administration: 30 minutes after administration; for Micturition interval (relative to before ligation, %) After administration / Micturition pressure (relative to before ligation, %) After administration / Micturition interval (relative to before ligation, %) Before administration / Micturition pressure (relative to before ligation, %) Before administration: mean ± standard error; for Micturition interval (relative to before ligation, %) Before administration / Micturition pressure (relative to before ligation, %) Before administration: after ligation, before drug
Protocol: The urinary frequency and urinary incontinence suppressing activity of a GABA uptake inhibitor was measured as the ability to increase the micturition interval in bilateral common carotid artery-ligated rat under consciousness as an index. An animal was restricted in a Ballmann cage, and physiological saline was sustained-injected into the bladder at a constant rate (0.1 ml/min.) to induce repeated micturition. After the stable micturition interval was confirmed, common carotid arteries were ligated bilaterally and micturition interval was decreased. A compound was administered intravenously to animals with micturition interval decreased 20% or more following ligation, and the activity was investigated. The micturition interval and micturition pressure before and after drug administration were measured for 30 minutes, and the averages are expressed as the ratio to the value before bilateral common carotid artery-ligation (Table 4). […]
Tiagabin hydrochloride was dissolved in distilled water and administered intravenously. Crystometograms for 30 minutes before and after drug administration were continuously measured and compared. Data are shown as a ratio to micturition interval and micturition pressure before bilateral common carotid artery-ligation (mean ± standard error). *P<0.05, **P<0.01 (significance relative to before drug administration, paired t test, two-tailed test)

[6] = 0.3 mg/kg intravenously, 30 minutes starting 15 minutes after administration
[7] = 1 mg/kg intravenously, 30 minutes starting 15 minutes after administration
[8] = 3 mg/kg intravenously, 30 minutes starting 15 minutes after administration
[9] = baseline of the 0.3 mg/kg i.v. group
[10] = baseline of the 1 mg/kg i.v. group
[11] = baseline of the 3 mg/kg i.v. group
[12] = baseline of the 0.1 mg/kg i.v. group

## O=C(O)C1=CCCN(CCON=C(c2ccccc2)c2ccccc2)C1 [NO-711 hydrochloride]
[1]; 0.3 mg/kg intravenously
  Change in maximum contractile intravesical pressure (Relative to before administration, %): -3.3±3.2%
  Reflex shutdown time: 3.8 ± 1.1 min
[1]; 1 mg/kg intravenously
  Change in maximum contractile intravesical pressure (Relative to before administration, %): -19.7±5.6* %
  Reflex shutdown time: 11.4±2.9** min.
[1]; 3 mg/kg intravenously
  Change in maximum contractile intravesical pressure (Relative to before administration, %): -8.4±5.8%
  Reflex shutdown time: 12.1±2.5** min.
[2]; 1 mg/kg intravenously
  Rhythmic bladder contraction shutdown time: 5.9 ± 1.3 min
[2]; 3 mg/kg intravenously
  Rhythmic bladder contraction shutdown time: 18.4±5.0* minutes
[2]; 10 mg/kg intravenously
  Rhythmic bladder contraction shutdown time: 16.9±3.6** minutes
[3]; 0.3 mg/kg intravenously
  Change in bladder capacity (Relative to before administration, %): -8.4±11.3%
  Change in micturition pressure (Relative to before administration, %): -18.1±10.5%
[3]; 1 mg/kg intravenously
  Change in bladder capacity (Relative to before administration, %): 180.9±76.8* %
  Change in micturition pressure (Relative to before administration, %): 16.4±8.2%
[3]; 3 mg/kg intravenously
  Change in bladder capacity (Relative to before administration, %): 188.7±45.3** %
  Change in micturition pressure (Relative to before administration, %): 14.6±18.2%

## O=C(O)[C@@H]1CCCN(CCC=C(c2ccccc2)c2ccccc2)C1 [SKF89976A hydrochloride, (R)-1-(4,4-diphenyl-3-butenyl)-3-piperidinecarboxylic acid]
[1]; 3 mg/kg intravenously
  Change in maximum contractile intravesical pressure (Relative to before administration, %): -7.1±3.1%
  Reflex shutdown time: 5.0 ± 1.0 min
[1]; 10 mg/kg intravenously
  Change in maximum contractile intravesical pressure (Relative to before administration, %): -12.1±11.5%
  Reflex shutdown time: 15.7±3.3* min.
[1]; 30 mg/kg intravenously
  Change in maximum contractile intravesical pressure (Relative to before administration, %): -8.4±10.6%
  Reflex shutdown time: 25.1±4.6** min.

## Cc1ccsc1C(=CCCN1CCC[C@@H](C(=O)O)C1)c1sccc1C [Tiagabin hydrochloride, (R)-1-[4,4-bis(3-methyl-2-thienyl)-3-butenyl]-3-piperidinecarboxylic acid]
[4]; [6]
  Micturition interval (min.) After administration: 6.8 ± 0.9 min
  Micturition pressure (mmHg) After administration: 15.1±2.6 mmHg
[4]; [7]
  Micturition interval (min.) After administration: 6.5±1.0* min.
  Micturition pressure (mmHg) After administration: 14.5±1.5 mmHg
[4]; [8]
  Micturition interval (min.) After administration: 7.3±0.5** min.
  Micturition pressure (mmHg) After administration: 16.5±1.6 mmHg
[4]; 3 mg/kg orally, 30 minutes starting 60 minutes after administration
  Micturition interval (min.) After administration: 5.6 ± 0.7 min
[4]; 10 mg/kg orally, 30 minutes starting 60 minutes after administration
  Micturition interval (min.) After administration: 6.1±0.8* min.
[4]; [9]
  Micturition interval (min.) Before administration: 6.6 ± 1.5 min
  Micturition pressure (mmHg) Before administration: 13.9±2.3 mmHg
[4]; [10]
  Micturition interval (min.) Before administration: 5.2 ± 0.7 min
  Micturition pressure (mmHg) Before administration: 14.4±1.4 mmHg
[4]; [11]
  Micturition interval (min.) Before administration: 5.1 ± 0.5 min
  Micturition pressure (mmHg) Before administration: 16.1±1.4 mmHg
[4]; baseline of the 3 mg/kg oral group
  Micturition interval (min.) Before administration: 4.9 ± 0.8 min
[4]; baseline of the 10 mg/kg oral group
  Micturition interval (min.) Before administration: 4.4 ± 0.5 min
[4]; both intravenous and oral administrations, summary of Table 5 and Table 6
  micturition interval (result in words): increased micturition interval
[5]; 0.1 mg/kg intravenously
  Micturition interval (relative to before ligation, %) After administration: 78.8±10.0%
  Micturition pressure (relative to before ligation, %) After administration: 100.7±2.3%
[5]; 0.3 mg/kg intravenously
  Micturition interval (relative to before ligation, %) After administration: 92.1±12.8* %
  Micturition pressure (relative to before ligation, %) After administration: 86.3±9.2%
[5]; 1 mg/kg intravenously
  Micturition interval (relative to before ligation, %) After administration: 100.0±6.5** %
  Micturition pressure (relative to before ligation, %) After administration: 105.0±8.4%
[5]; 3 mg/kg intravenously
  Micturition interval (relative to before ligation, %) After administration: 75.5±15.0* %
  Micturition pressure (relative to before ligation, %) After administration: 106.2 ± 5.3%
[5]; [12]
  Micturition interval (relative to before ligation, %) Before administration: 58.5±3.1%
  Micturition pressure (relative to before ligation, %) Before administration: 103.9±1.1%
[5]; [9]
  Micturition interval (relative to before ligation, %) Before administration: 62.5±4.9%
  Micturition pressure (relative to before ligation, %) Before administration: 91.3±10.6%
[5]; [10]
  Micturition interval (relative to before ligation, %) Before administration: 63.2±3.3%
  Micturition pressure (relative to before ligation, %) Before administration: 111.5±8.3%
[5]; [11]
  Micturition interval (relative to before ligation, %) Before administration: 46.5±11.6%
  Micturition pressure (relative to before ligation, %) Before administration: 105.2±10.8%
[5]; intravenously, interval decreased by bilateral common carotid artery ligation, summary of Table 4
  micturition interval (result in words): showed an increasing effect on micturition interval
[1]; 0.3 mg/kg intravenously
  Change in maximum contractile intravesical pressure (Relative to before administration, %): -12.6±5.8%
  Reflex shutdown time: 4.7 ± 1.6 min
[1]; 1 mg/kg intravenously
  Change in maximum contractile intravesical pressure (Relative to before administration, %): 4.5±17.3%
  Reflex shutdown time: 11.6 ± 3.8 min
[1]; 3 mg/kg intravenously
  Change in maximum contractile intravesical pressure (Relative to before administration, %): -19.4±11.8%
  Reflex shutdown time: 18.0±3.5* min.
[1]; 10 mg/kg intravenously
  Change in maximum contractile intravesical pressure (Relative to before administration, %): -31.6±10.5%
  Reflex shutdown time: 24.6±3.1** min.
[3]; 1 mg/kg intravenously
  Change in bladder capacity (Relative to before administration, %): 42.7±35.6%
  Change in micturition pressure (Relative to before administration, %): 15.2±14.6%
[3]; 3 mg/kg intravenously
  Change in bladder capacity (Relative to before administration, %): 236.8±81.2* %
  Change in micturition pressure (Relative to before administration, %): 29.5±15.6%
[3]; 10 mg/kg intravenously
  Change in bladder capacity (Relative to before administration, %): 276.4±29.4** %
  Change in micturition pressure (Relative to before administration, %): 2.5±10.3%
